The assay concerns the target T1, VMAT-2 (Rattus norvegicus, UniProt Q01827).
T1 construct: Novascreen Biosciences Corporation (contract assay provider) protocol Cat. No. 100-0751
Put plainly: VMAT-2 binding affinity measurement (Novascreen protocol Cat. No. 100-0751). Conditions: for Ki: VMAT-2 binding affinity; for binding affinity for VMAT-2 (in words): relative to a DTBZ control. As for the experimental part:
VMAT-2 binding affinity measurements were carried out by Novascreen Biosciences Corporation (Hanover, Md., USA) using protocol Cat. No. 100-0751. Novascreen, Inc. is a commercial provider of biological assays for the pharmaceutical industry.

The text below walks through data of US7897769B2, “Intermediates for fluorinated dihydrotetrabenazine ether imaging agents and probes” (General Electric Company, priority 2007, dated 2011).

T1 sequence (Q01827 whole entry): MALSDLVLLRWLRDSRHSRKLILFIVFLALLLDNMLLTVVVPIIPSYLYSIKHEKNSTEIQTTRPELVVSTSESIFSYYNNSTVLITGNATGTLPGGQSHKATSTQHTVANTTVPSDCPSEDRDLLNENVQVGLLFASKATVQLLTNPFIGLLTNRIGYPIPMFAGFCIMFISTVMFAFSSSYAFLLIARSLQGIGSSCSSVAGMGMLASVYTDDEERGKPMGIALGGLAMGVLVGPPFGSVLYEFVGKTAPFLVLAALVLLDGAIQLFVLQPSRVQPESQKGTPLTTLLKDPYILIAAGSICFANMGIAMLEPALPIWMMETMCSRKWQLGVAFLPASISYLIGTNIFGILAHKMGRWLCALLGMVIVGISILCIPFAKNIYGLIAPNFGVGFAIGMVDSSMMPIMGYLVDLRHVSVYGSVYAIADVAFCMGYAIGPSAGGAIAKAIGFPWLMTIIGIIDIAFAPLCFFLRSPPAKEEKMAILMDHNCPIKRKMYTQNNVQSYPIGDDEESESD

Regarding `COc1cc2c(cc1OC)[C@H]1C[C@@H](OCCF)[C@H](CC(C)C)CN1CC2` [Compound 22], affinity was put at a Ki of 3.2 nM and the “binding affinity for VMAT-2 (in words)” value is on record as “very high binding affinity”.

For `COc1cc2c(cc1OC)[C@H]1C[C@@H](OCCCF)[C@H](CC(C)C)CN1CC2` [Compound 23], the affinity, expressed as Ki, was 6.4 nM and the “binding affinity for VMAT-2 (in words)” value is on record as “very high binding affinity”.
